Experimental data as given in ChEMBL document CHEMBL1201862, “PubChem BioAssay data set” (2004).
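96-well plates; 48 h exposure; 5 concentrations. Endpoints by linear interpolation between flanking doses. Not reached: highest tested concentration assigned. GI50: concentration for 50% inhibition of growth.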 Active and inactive are the calls of the source. Cut-off read from the data, not from the text of the source: active = GI50 up to about 1.1 µM and inactive = higher.

Assays:
Experiment in all cases: growth of human tumour cells (NCI), 48 h
K562 = tested on: K562
SW-620 = tested on: SW-620
NCI-H460 = tested on: NCI-H460
HCC 2998 = tested on: HCC 2998
A498 = tested on: A498
RPMI-8226 = tested on: RPMI-8226
NCI-H522 = tested on: NCI-H522
HCT-15 = tested on: HCT-15
SK-MEL-2 = tested on: SK-MEL-2
M14 = tested on: M14
OVCAR-8 = tested on: OVCAR-8
SNB-75 = tested on: SNB-75
IGROV-1 = tested on: IGROV-1
BT-549 = tested on: BT-549
HL-60 = tested on: HL-60
MCF7 = tested on: MCF7
KM12 = tested on: KM12
EKVX = tested on: EKVX
SK-OV-3 = tested on: SK-OV-3
ACHN = tested on: ACHN

Measured: GI50

CCOC(=O)C(SCCO)C(C(=O)OCC)n1cnc2c(N)ncnc21 (stereo not drawn)
6.27 µM: HCT-15
inactive: K562 3.66 µM | SW-620 3.01 µM | NCI-H460 12.4 µM | HCC 2998 13.8 µM | A498 14.9 µM | RPMI-8226 5.04 µM | NCI-H522 3.46 µM | SK-MEL-2 15.8 µM | M14 5.07 µM | OVCAR-8 13.9 µM | SNB-75 12.1 µM | IGROV-1 16.1 µM | BT-549 15.3 µM | HL-60 2 µM | MCF7 5.55 µM | KM12 17.1 µM | EKVX 16.5 µM | SK-OV-3 54.7 µM | ACHN 10.5 µM

Nc1cc(S(N)(=O)=O)ccc1SSc1ccc(S(N)(=O)=O)cc1N
> 100 µM: HCT-15
inactive: K562 > 96.6 µM | SW-620 > 100 µM | NCI-H460 > 100 µM | HCC 2998 > 100 µM | A498 > 100 µM | RPMI-8226 > 100 µM | NCI-H522 > 100 µM | SK-MEL-2 > 100 µM | M14 > 100 µM | OVCAR-8 > 100 µM | SNB-75 > 100 µM | IGROV-1 > 100 µM | BT-549 > 100 µM | HL-60 > 100 µM | MCF7 > 100 µM | KM12 > 100 µM | EKVX > 100 µM | SK-OV-3 > 100 µM | ACHN > 62.5 µM

CC(CNC(N)=O)NC(N)=O (stereo not drawn)
> 100 µM: HCT-15
inactive: K562 > 100 µM | SW-620 > 100 µM | NCI-H460 > 100 µM | HCC 2998 > 100 µM | A498 > 100 µM | RPMI-8226 > 100 µM | NCI-H522 > 100 µM | SK-MEL-2 > 100 µM | M14 > 100 µM | OVCAR-8 > 100 µM | SNB-75 > 100 µM | IGROV-1 > 100 µM | BT-549 > 100 µM | HL-60 > 100 µM | MCF7 > 100 µM | KM12 > 100 µM | EKVX > 100 µM | SK-OV-3 > 100 µM | ACHN > 100 µM

CN(C)c1ccc(/C=C(\NC(=O)c2ccccc2)C(=O)NC(Cc2c[nH]c3ccccc23)C(=O)O)cc1 (stereo not drawn)
inactive: K562 > 100 µM | SW-620 > 100 µM | NCI-H460 > 100 µM | HCC 2998 > 100 µM | A498 > 100 µM | RPMI-8226 > 100 µM | NCI-H522 47.6 µM | SK-MEL-2 > 100 µM | M14 > 100 µM | OVCAR-8 > 100 µM | IGROV-1 > 100 µM | BT-549 > 100 µM | HL-60 > 100 µM | MCF7 > 100 µM | KM12 > 100 µM | EKVX > 100 µM | SK-OV-3 > 100 µM | ACHN > 100 µM
active: SNB-75 0.226 µM
> 100 µM: HCT-15

COC1(C)Cc2c(c(C)c(O)c3c2C(=O)C=C(Cl)C3=O)O1 (stereo not drawn)
45.8 µM: HCT-15
inactive: K562 8.75 µM | SW-620 19.8 µM | NCI-H460 > 100 µM | HCC 2998 > 100 µM | A498 > 100 µM | RPMI-8226 14.7 µM | NCI-H522 16.9 µM | SK-MEL-2 > 84.1 µM | M14 21.8 µM | OVCAR-8 40.2 µM | SNB-75 > 100 µM | IGROV-1 55.5 µM | BT-549 > 100 µM | HL-60 3.48 µM | MCF7 41.8 µM | KM12 > 100 µM | EKVX > 100 µM | SK-OV-3 > 100 µM | ACHN 25.4 µM

NCCSS(=O)(=O)CCN
> 100 µM: HCT-15
inactive: K562 > 100 µM | SW-620 > 100 µM | NCI-H460 > 100 µM | HCC 2998 > 100 µM | A498 > 100 µM | RPMI-8226 > 100 µM | NCI-H522 > 100 µM | SK-MEL-2 > 100 µM | M14 > 100 µM | OVCAR-8 > 100 µM | SNB-75 > 100 µM | IGROV-1 > 100 µM | BT-549 > 100 µM | HL-60 > 100 µM | MCF7 > 100 µM | KM12 > 100 µM | EKVX > 100 µM | SK-OV-3 > 100 µM | ACHN > 100 µM

Nc1ccc(-c2nc3ccccc3s2)cc1Br
active: IGROV-1 < 0.01 µM | MCF7 < 0.01 µM
inactive: K562 87.1 µM | SW-620 > 100 µM | NCI-H460 4.31 µM | HCC 2998 72.6 µM | A498 2.44 µM | RPMI-8226 70.8 µM | NCI-H522 > 100 µM | SK-MEL-2 > 100 µM | M14 97.9 µM | OVCAR-8 > 75.2 µM | SNB-75 31.3 µM | BT-549 > 56.8 µM | HL-60 > 100 µM | KM12 > 92.9 µM | EKVX 26.4 µM | SK-OV-3 > 71.4 µM | ACHN > 80.9 µM
62.8 µM: HCT-15

NC(=O)CSc1c2cc(O)ccc2nc2ccc(O)cc12
> 10 µM: HCT-15
inactive: K562 > 10 µM | SW-620 > 10 µM | NCI-H460 > 10 µM | HCC 2998 > 10 µM | A498 > 10 µM | RPMI-8226 > 10 µM | NCI-H522 > 10 µM | SK-MEL-2 > 10 µM | M14 > 10 µM | OVCAR-8 > 10 µM | SNB-75 > 10 µM | IGROV-1 > 10 µM | BT-549 > 10 µM | HL-60 > 10 µM | MCF7 > 10 µM | KM12 > 10 µM | EKVX > 10 µM | SK-OV-3 > 10 µM | ACHN > 10 µM

N/C(=N\Nc1ccc(Cl)cc1)c1cnccn1
inactive: K562 3.85 µM | SW-620 > 100 µM | NCI-H460 37.2 µM | HCC 2998 22.9 µM | A498 > 100 µM | RPMI-8226 78.3 µM | NCI-H522 28.3 µM | SK-MEL-2 58.1 µM | M14 6.64 µM | OVCAR-8 > 100 µM | SNB-75 > 100 µM | IGROV-1 > 100 µM | BT-549 > 100 µM | HL-60 3.48 µM | MCF7 38.5 µM | KM12 > 100 µM | EKVX 81.7 µM | SK-OV-3 > 100 µM | ACHN > 100 µM
21.4 µM: HCT-15

O=C1Sc2cc3ccccc3cc2C(=O)Sc2cc3ccccc3cc21
22.8 µM: HCT-15
inactive: K562 27 µM | SW-620 30.3 µM | NCI-H460 41.6 µM | HCC 2998 21.3 µM | A498 > 100 µM | RPMI-8226 6.68 µM | NCI-H522 7.45 µM | SK-MEL-2 23 µM | M14 27.8 µM | OVCAR-8 24.5 µM | SNB-75 38.8 µM | IGROV-1 32.3 µM | BT-549 32.3 µM | HL-60 7.87 µM | MCF7 32.4 µM | KM12 33 µM | EKVX 76.2 µM | SK-OV-3 > 100 µM | ACHN 28.9 µM

Cc1cc2nc(C=C(C(F)(F)F)C(F)(F)F)oc2cc1C
active: MCF7 0.472 µM
inactive: K562 2.25 µM | SW-620 1.73 µM | NCI-H460 3.92 µM | HCC 2998 3.08 µM | A498 > 10 µM | RPMI-8226 1.55 µM | NCI-H522 3.12 µM | SK-MEL-2 > 10 µM | M14 2.51 µM | OVCAR-8 2.46 µM | SNB-75 4.55 µM | IGROV-1 2.91 µM | BT-549 2.67 µM | HL-60 2.03 µM | KM12 > 10 µM | EKVX 3.15 µM | SK-OV-3 > 10 µM | ACHN 5.06 µM
3.37 µM: HCT-15

Cn1cnc([N+](=O)[O-])c1Sc1nc(N)nc2c1ncn2Cc1ccccc1
inactive: K562 20.5 µM | SW-620 22.9 µM | NCI-H460 17.8 µM | HCC 2998 15.9 µM | A498 25 µM | RPMI-8226 19 µM | NCI-H522 10.2 µM | SK-MEL-2 15.8 µM | M14 22.9 µM | OVCAR-8 18.1 µM | SNB-75 20.4 µM | IGROV-1 14.5 µM | BT-549 22.1 µM | HL-60 18.9 µM | MCF7 35.4 µM | KM12 30 µM | EKVX 11.5 µM | SK-OV-3 24.5 µM | ACHN 15.3 µM
18 µM: HCT-15

COc1ccc(C(=O)N(Cc2cccnc2)C(=S)N(Cc2cccnc2)C(=O)c2ccc(OC)cc2)cc1
> 100 µM: HCT-15
inactive: K562 > 100 µM | SW-620 > 100 µM | NCI-H460 > 100 µM | HCC 2998 > 100 µM | A498 > 100 µM | RPMI-8226 > 100 µM | NCI-H522 72.1 µM | SK-MEL-2 > 100 µM | M14 > 100 µM | OVCAR-8 66.8 µM | SNB-75 17.2 µM | BT-549 > 100 µM | HL-60 > 100 µM | MCF7 > 100 µM | KM12 70.8 µM | EKVX > 100 µM | SK-OV-3 67.3 µM | ACHN > 100 µM

COc1cccc(CCn2c(N)c(C(=O)O)c3ccc([N+](=O)[O-])cc3c2=O)c1
inactive: K562 67.8 µM | SW-620 > 100 µM | NCI-H460 32.8 µM | HCC 2998 53.2 µM | A498 40.5 µM | RPMI-8226 22.9 µM | NCI-H522 28.3 µM | SK-MEL-2 22.6 µM | M14 45.3 µM | OVCAR-8 36.6 µM | SNB-75 24.9 µM | IGROV-1 36.7 µM | BT-549 25.4 µM | HL-60 > 100 µM | MCF7 20.1 µM | EKVX 51.5 µM | SK-OV-3 35.6 µM | ACHN 33.7 µM
31.8 µM: HCT-15
